Each structure is given as a SMILES string.

The target in the assay is T1, human ACC2 (Homo sapiens, UniProt O00763).
T1 construct: made in house; host or cells: insect cells (baculoviral expression system)
T1 sequence (O00763 129-2458 limits assumed): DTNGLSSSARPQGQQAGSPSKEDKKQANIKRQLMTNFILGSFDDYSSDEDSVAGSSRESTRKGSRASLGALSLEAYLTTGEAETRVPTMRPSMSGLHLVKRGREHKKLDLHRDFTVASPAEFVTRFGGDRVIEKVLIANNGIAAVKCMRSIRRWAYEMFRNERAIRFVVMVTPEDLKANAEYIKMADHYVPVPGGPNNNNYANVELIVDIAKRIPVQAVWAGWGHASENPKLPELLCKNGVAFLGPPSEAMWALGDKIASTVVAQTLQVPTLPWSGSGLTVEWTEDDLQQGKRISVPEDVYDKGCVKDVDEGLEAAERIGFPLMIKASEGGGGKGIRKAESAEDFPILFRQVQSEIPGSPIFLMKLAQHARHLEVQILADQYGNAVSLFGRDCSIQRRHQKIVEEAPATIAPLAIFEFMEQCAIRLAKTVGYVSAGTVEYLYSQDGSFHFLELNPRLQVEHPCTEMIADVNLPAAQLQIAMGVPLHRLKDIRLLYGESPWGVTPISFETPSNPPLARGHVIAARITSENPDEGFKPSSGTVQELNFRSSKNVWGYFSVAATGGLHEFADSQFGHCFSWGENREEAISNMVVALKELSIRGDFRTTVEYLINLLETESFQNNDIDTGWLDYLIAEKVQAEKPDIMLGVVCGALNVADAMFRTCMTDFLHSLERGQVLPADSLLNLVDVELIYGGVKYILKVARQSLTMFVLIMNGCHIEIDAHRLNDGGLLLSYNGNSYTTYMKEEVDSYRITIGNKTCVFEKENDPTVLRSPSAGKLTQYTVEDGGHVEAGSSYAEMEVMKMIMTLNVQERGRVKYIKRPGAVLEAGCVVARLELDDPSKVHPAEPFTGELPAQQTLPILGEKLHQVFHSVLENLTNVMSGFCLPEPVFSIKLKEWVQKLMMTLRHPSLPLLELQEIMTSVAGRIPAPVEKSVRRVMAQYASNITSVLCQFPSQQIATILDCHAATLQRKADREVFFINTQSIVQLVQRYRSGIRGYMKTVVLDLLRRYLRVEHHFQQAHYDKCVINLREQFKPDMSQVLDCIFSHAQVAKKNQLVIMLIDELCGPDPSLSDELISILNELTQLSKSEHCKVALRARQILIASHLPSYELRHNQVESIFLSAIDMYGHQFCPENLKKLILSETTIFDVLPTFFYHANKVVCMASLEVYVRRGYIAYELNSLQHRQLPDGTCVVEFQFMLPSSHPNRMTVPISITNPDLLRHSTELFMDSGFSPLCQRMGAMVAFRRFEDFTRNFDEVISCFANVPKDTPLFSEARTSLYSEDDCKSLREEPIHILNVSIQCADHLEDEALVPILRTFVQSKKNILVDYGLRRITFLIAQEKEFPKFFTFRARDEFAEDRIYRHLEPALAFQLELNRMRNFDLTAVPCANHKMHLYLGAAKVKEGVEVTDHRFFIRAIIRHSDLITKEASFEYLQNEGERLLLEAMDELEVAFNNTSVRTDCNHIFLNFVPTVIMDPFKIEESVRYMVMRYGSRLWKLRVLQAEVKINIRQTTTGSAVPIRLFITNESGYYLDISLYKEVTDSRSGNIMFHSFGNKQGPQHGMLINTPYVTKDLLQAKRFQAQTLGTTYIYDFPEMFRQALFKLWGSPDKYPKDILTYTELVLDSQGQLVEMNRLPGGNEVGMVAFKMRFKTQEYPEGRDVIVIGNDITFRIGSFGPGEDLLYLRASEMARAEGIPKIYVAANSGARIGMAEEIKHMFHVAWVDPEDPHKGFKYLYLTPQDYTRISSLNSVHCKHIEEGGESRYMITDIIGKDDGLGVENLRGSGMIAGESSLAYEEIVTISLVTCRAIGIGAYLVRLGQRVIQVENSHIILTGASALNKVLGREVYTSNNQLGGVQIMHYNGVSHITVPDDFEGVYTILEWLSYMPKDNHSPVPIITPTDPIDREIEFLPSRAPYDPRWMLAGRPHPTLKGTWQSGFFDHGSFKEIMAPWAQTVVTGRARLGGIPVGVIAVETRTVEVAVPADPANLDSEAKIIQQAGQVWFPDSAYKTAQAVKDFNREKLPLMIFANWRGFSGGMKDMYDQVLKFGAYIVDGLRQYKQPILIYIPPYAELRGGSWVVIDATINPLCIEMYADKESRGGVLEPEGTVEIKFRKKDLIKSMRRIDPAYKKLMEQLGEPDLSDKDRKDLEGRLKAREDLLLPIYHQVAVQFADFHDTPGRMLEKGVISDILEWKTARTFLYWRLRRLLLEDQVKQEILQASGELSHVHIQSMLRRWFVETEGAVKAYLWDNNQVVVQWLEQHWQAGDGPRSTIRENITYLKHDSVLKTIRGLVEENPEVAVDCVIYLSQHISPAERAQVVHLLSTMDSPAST
Put plainly: ACC2 assay, spectrophotometric 384 well assay (NADH-linked, coupled lactate dehydrogenase/pyruvate kinase). The format is biochemical. To be noted: ACC2 assay; human ACC2 construct lacking 128 N-terminal amino acids; 25° C., 340 nm, 15 minutes; read-out: IC50. As to the method:
Spectrophotometric 384 Well Assay
Malonyl CoA formation by acetyl CoA carboxylases is stoichometrically linked to the consumption of ATP. ACC2 activity is measured in a NADH-linked kinetic method measuring ADP generated during the ACC reaction using a coupled lactate dehydrogenase/pyruvate kinase reaction.
For biological testing, a human ACC2 construct which lacks the 128 amino acids at the N-terminus for increased solubility (nt 385-6966 in Genbank entry AJ575592) is cloned. The protein is then expressed in insect cells using a baculoviral expression system. Protein purification is performed by anion exchange.
All compounds are dissolved in dimethyl sulfoxide (DMSO) to a concentration of 10 mM.
Assay reactions are then carried out in 384-well plates, with hACC2 in an appropriate dilution and at final assay concentrations (f.c.) of 100 mM Tris (pH 7.5), 10 mM trisodium citrate, 25 mM KHCO3, 10 mM MgCl2, 0.5 mg/ml BSA, 3.75 mM reduced L-glutathione, 15 U/ml lactate dehydrogenase, 0.5 mM phosphoenolpyruvate, 15 U/ml pyruvate kinase, compounds at different concentrations at final DMSO concentrations of 1%.
The enzymatic reaction is then started by addition of a mixture of NADH, acetyl Coenzyme A (both […].) and ATP (500 uM f.c.). The decrease of the optical density (slope S) is then determined at 25° C. at a wavelength of 340 nm over 15 minutes in a spectrophotometric reader.
Each assay microtiter plate contains wells with vehicle instead of compound as controls for the non-inhibited enzyme (100% CTL; ‘HIGH’) and wells without acetyl-CoA as controls for non-specific NADH degradation (0% CTL; ‘LOW’).
The slope S is used for calculation of % CTL=(S(compound)−S(‘LOW’))/(S(‘HIGH’)−S(‘LOW’))100. Compounds will give values between 100% CTL (no inhibition) and 0% CTL (complete inhibition).
For IC50 value determination, the sample slope in the presence of the test compound after subtraction of the low controls (S(compound)−S(‘LOW’)) are used.
An IC50 value is derived from the compound slopes at different dosages after subtraction of the low controls (S(compound)−S(‘LOW’)) by non-linear regression curve fitting (equation y=(A+((B−A)/(1+((C/x)^D))))).
In the case of `CCOCC(=O)N[C@@H](C)c1ccc(N2CC(Oc3ccc(OCC)cc3)C2)cc1` [Example 1.62], the concentration for half-maximal inhibition (IC50) amounted to 2500 nM.
For the compound `C#CC(C)(C)C(=O)N[C@@H](C)c1ccc(N2CC(Oc3ccc(OCC)cc3)C2)cc1` [Example 1.63], the IC50 is 930 nM.
Take `CCOc1ccc(OC2CN(c3ccc([C@H](C)NC(=O)c4ccc(C)nc4)cc3)C2)cc1` [Example 1.64]: the IC50 is 2190 nM.
Then `CCCCC(=O)N[C@@H](C)c1ccc(N2CC(Oc3ccc(OCC)cc3)C2)cc1` [Example 1.65], with 800 nM; and `CCOc1ccc(OC2CN(c3ccc([C@H](C)NC(=O)c4sc(NC(C)=O)nc4-c4ccccc4)cc3)C2)cc1` [Example 1.66], with 550 nM.
Under `CCOc1ccc(OC2CN(c3ccc([C@H](C)NC(=O)CCOC)cc3)C2)cc1` [Example 1.67] stands 1290 nM; under `CCOc1ccc(OC2CN(c3ccc([C@H](C)NC(=O)C(C)(C)C#N)cc3)C2)cc1` [Example 1.68], 1520 nM; under `CCOc1ccc(OC2CN(c3ccc([C@H](C)NC(=O)c4ccc(C)c(NC(C)=O)c4)cc3)C2)cc1` [Example 1.69], 3150 nM.
Then `CCOc1ccc(OC2CN(c3ccc([C@H](C)NC(=O)C(C)CC)cc3)C2)cc1` (some centres unmarked) [Example 1.71], with 710 nM.
With `CCOc1ccc(OC2CN(c3ccc([C@H](C)NC(=O)c4coc(NC(C)=O)n4)cc3)C2)cc1` [Example 1.72], the IC50 came out at 1190 nM.
Under `CCOc1ccc(OC2CN(c3ccc([C@H](C)NC(=O)C(F)F)cc3)C2)cc1` [Example 1.73] stands 160 nM; under `CCOc1ccc(OC2CN(c3ccc([C@H](C)NC(=O)C4(C(F)(F)F)CC4)cc3)C2)cc1` [Example 1.74], 410 nM; under `CCOc1ccc(OC2CN(c3ccc([C@H](C)NC(=O)CC(F)(F)F)cc3)C2)cc1` [Example 1.75], 410 nM.
Take `CCOc1ccc(OC2CN(c3ccc([C@H](C)NC(=O)c4sc(C)nc4C)cc3)C2)cc1` [Example 1.76]: the IC50 came out at 1000 nM.
Then `C#CCCC(=O)N[C@@H](C)c1ccc(N2CC(Oc3ccc(OCC)cc3)C2)cc1` [Example 1.77], with 1040 nM.
For the compound `CCOc1ccc(OC2CN(c3ccc([C@H](C)NC(=O)c4cncc(NC(C)=O)c4)cc3)C2)cc1` [Example 1.78], the IC50 is 360 nM.
As for `CCOc1ccc(OC2CN(c3ccc([C@H](C)NC(=O)C(C)O)cc3)C2)cc1` (some centres unmarked) [Example 1.79], the IC50 turned out to be 1720 nM.
For the compound `CCOc1ccc(OC2CN(c3ccc([C@H](C)NC(=O)CCC#N)cc3)C2)cc1` [Example 1.80], the IC50 was 1060 nM.
Then `CCOc1ccc(OC2CN(c3ccc([C@H](C)NC(=O)Cc4ccccn4)cc3)C2)cc1` [Example 1.81], with 2330 nM; and `CCOc1ccc(OC2CN(c3ccc([C@H](C)NC(=O)C(C)C#N)cc3)C2)cc1` (some centres unmarked) [Example 1.82], with 270 nM; and `CCOc1ccc(OC2CN(c3ccc([C@H](C)NC(=O)CC#N)cc3)C2)cc1` [Example 1.83], with 590 nM.
Then `CCOc1ccc(OC2CN(c3ccc([C@H](C)NC(=O)c4cnon4)cc3)C2)cc1` [Example 1.84], with 730 nM; and `CCOc1ccc(OC2CN(c3ccc([C@H](C)NC(=O)c4cncs4)cc3)C2)cc1` [Example 1.85], with 230 nM.
Turning to `C[C@H](NC(=O)c1cn[nH]c1)c1ccc(N2CC(Oc3ccc(OCC4CC4)cc3)C2)cc1` [Example 1.86], the IC50 amounted to 50 nM.
Under `C[C@H](NC(=O)CC#N)c1ccc(N2CC(Oc3ccc(OCC4CC4)cc3)C2)cc1` [Example 1.87] stands 200 nM.
Regarding `CCC(=O)N[C@@H](C)c1ccc(N2CC(Oc3ccc(OCC4CC4)cc3)C2)cc1` [Example 1.88], the half-maximal inhibitory concentration (IC50) worked out at 100 nM.
Consider `C[C@H](NC(=O)C1(C)CC1)c1ccc(N2CC(Oc3ccc(OCC4CC4)cc3)C2)cc1` [Example 1.89], for which the IC50 turned out to be 120 nM.
Under `C[C@H](NC(=O)c1cncs1)c1ccc(N2CC(Oc3ccc(OCC4CC4)cc3)C2)cc1` [Example 1.90] stands 90 nM; under `CCOc1ccc(OC2CN(c3ccc([C@H](C)NC(=O)c4cc(C)oc4C)cc3)C2)cc1` [Example 2.1, (S)-2,5-Dimethyl-furan-3-carboxylic acid (1-{4-[3-(4-ethoxy-phenoxy)-azetidin-1-yl]-phenyl}-ethyl)-amide], 1530 nM; under `CCOc1ccc(OC2CN(c3ccc([C@H](C)NC(=O)c4ccnn4C)cc3)C2)cc1` [Example 2.2], 790 nM.
For the compound `CCOc1ccc(OC2CN(c3ccc([C@H](C)NC(=O)c4ccoc4C)cc3)C2)cc1` [Example 2.3], the IC50 worked out at 820 nM.
As for `CCOc1ccc(OC2CN(c3ccc([C@H](C)NC(=O)c4ccno4)cc3)C2)cc1` [Example 2.4], the IC50 amounted to 290 nM.
As for `C[C@H](NC(=O)C1CC1)c1ccc(N2CC(Oc3ccc(OCC4CC4)cc3)C2)cc1` [Example 2.7], the IC50 worked out at 70 nM.
Then `CCOc1ccc(OC2CN(c3ccc([C@H](C)NC(=O)C(F)(F)F)cc3)C2)cc1` [Example 3.1, (S)—N-(1-{4-[3-(4-Ethoxy-phenoxy)-azetidin-1-yl]-phenyl}-ethyl)-2,2,2-trifluoro-acetamide], with 60 nM.
Under `CCOc1ccc(OC2CN(c3ccc([C@H](C)NC(=O)Nc4ccncn4)cc3)C2)cc1` [Example 4.1, (S)-1-(1-{4-[3-(4-Ethoxy-phenoxy)-azetidin-1-yl]-phenyl}-ethyl)-3-pyrimidin-4-yl-urea] stands 3410 nM; under `CCNC(=O)N[C@@H](C)c1ccc(N2CC(Oc3ccc(OCC)cc3)C2)cc1` [Example 4.2], 1540 nM; under `CCOc1ccc(OC2CN(c3ccc([C@H](C)NC(=O)NC)cc3)C2)cc1` [Example 4.3], 1000 nM.
Then `CCOc1ccc(OC2CN(c3ccc([C@H](C)NC(=O)N4CC(O)C4)cc3)C2)cc1` [Example 4.4], with 1610 nM.
In the case of `CCOc1ccc(OC2CN(c3ccc([C@H](C)NC(=O)N(C)CC4CC4)cc3)C2)cc1` [Example 4.5], the IC50 stood at 5570 nM.
Under `CCOc1ccc(OC2CN(c3ccc([C@H](C)NC(=O)Nc4cc[nH]n4)cc3)C2)cc1` [Example 4.7] stands 2310 nM; under `CCOc1ccc(OC2CN(c3ccc([C@H](C)NC(=O)N(C)CCOC)cc3)C2)cc1` [Example 4.8], 1390 nM; under `CCOc1ccc(OC2CN(c3ccc([C@H](C)NC(=O)N(C)CC)cc3)C2)cc1` [Example 4.9], 860 nM.
For `CCOc1ccc(OC2CN(c3ccc([C@H](C)NC(=O)N(C)C(C)C)cc3)C2)cc1` [Example 4.10], the IC50 was 3100 nM.
Under `CCOc1ccc(OC2CN(c3ccc([C@H](C)NC(=O)N4CCC4)cc3)C2)cc1` [Example 4.11] stands 2370 nM; under `CCOc1ccc(OC2CN(c3ccc([C@H](C)NC(=O)N(CC#N)C4CC4)cc3)C2)cc1` [Example 4.12], 1610 nM; under `CCOc1ccc(OC2CN(c3ccc([C@H](C)NC(=O)N(C)c4cccnc4)cc3)C2)cc1` [Example 4.13], 370 nM.
For the compound `CCOc1ccc(OC2CN(c3ccc([C@H](C)NC(=O)N(C)C4CC4)cc3)C2)cc1` [Example 4.14], the IC50 was 3450 nM.
Turning to `C[C@H](NC(=O)N(C)C)c1ccc(N2CC(Oc3ccc(OCC4CC4)cc3)C2)cc1` [Example 4.15], the IC50 stood at 70 nM.
Regarding `CCNC(=O)N[C@@H](C)c1ccc(N2CC(Oc3ccc(OCC4CC4)cc3)C2)cc1` [Example 4.16], the IC50 is 280 nM.
For the compound `C[C@H](NC(=O)N(C)C1CC1)c1ccc(N2CC(Oc3ccc(OCC4CC4)cc3)C2)cc1` [Example 4.17], the half-inhibitory concentration (IC50) was 1130 nM.
Regarding `CCOc1ccc(OC2CN(c3ccc([C@H](C)NC4=CC(=O)OC4)cc3)C2)cc1` [Example 5.1, (S)-4-(1-{4-[3-(4-Ethoxy-phenoxy)-azetidin-1-yl]-phenyl}-ethylamino)-5H-furan-2-one], the IC50 came out at 340 nM.
Then `CC(=O)N[C@@H](C)c1ccc(N2CC(Oc3ccc(C(C)(C)C)cc3)C2)cc1` [Example 6.1, (S)—N-(1-{4-[3-(4-tert-Butyl-phenoxy)-azetidin-1-yl]-phenyl}-ethyl)-acetamide], with 260 nM; and `CCOc1ccc(OC2CN(c3ccc([C@H](C)NC(C)=O)cc3)C2)c(F)c1` [Example 7.1, (S)—N-(1-{4-[3-(4-Ethoxy-2-fluoro-phenoxy)-azetidin-1-yl]-phenyl}-ethyl)-acetamide], with 120 nM.

The IC50 is the concentration that inhibits the measured activity by half.

The values above are taken from patent US8530461B2 (Boehringer Ingelheim International GmbH, priority 2011, dated 2013).
